The numbers were not newly measured in patent US7332526B2 (Allergan, Inc., priority 2003, dated 2008), which cites them from elsewhere.

No end group written: not given here.

For data set [1] the following is noted: in vivo.
Data set [2] deals with wounded corneal epithelial cells. The conditions noted are these: in vitro, rabbit cells.

For `CCNC(=O)CCC/C=C\C[C@@H]1[C@@H](/C=C/[C@@H](O)CCc2ccccc2)[C@H](O)C[C@@H]1O` [bimatoprost], the “hyperemia and other irritating side effects compared to certain prostaglandins” value in data set [1] is “significantly less hyperemia and other irritating side effects”.
Regarding “TFF3: human trefoil factor family peptide with one trefoil domain, produced by goblet cells of small and large intestine (EEYVGLSANQCAVPAKDRVDCGYPHVTPKECNNRGCCFDSRIPGVPWCFKPLQEAECTF; ends and bridges not checked; cysteine pairing not given here; UniProt Q07654 22-80, looked up)”, the “migration of wounded corneal epithelial cells” value in data set [2] is “promote the migration”.

B1: TFF2: human trefoil factor family peptide containing two trefoil domains, produced by mucus-producing cells of stomach (protein, UniProt Q03403 24-129, looked up)
Trefoil factor 2: EKPSPCQCSRLSPHNRTNCGFPGITSDQCFDNGCCFDSSVTGVPWCFHPLPKQESDQCVMEVSDRRNCGYPGISPEECASRKCCFSNFIFEVPWCFFPKSVEDCHY
In the case of B1, in data set [2], the “migration of wounded corneal epithelial cells” value is “promote the migration”.
